Experimental data taken from patent publication US11292770B2, “Pyridazinone herbicides” (FMC Corporation, priority 2017, dated 2022).

test system: ryegrass, Italian (Italian ryegrass, Lolium multiflorum); test: Test A preemergence, ryegrass, Italian; assay type: in vivo; conditions: 31 g ai/ha, 0 to 100 scale
Excerpt: (§1) Seeds of plant species selected from barnyardgrass (Echinochloa crus-galli), kochia (Kochia scoparia), ragweed (common ragweed, Ambrosia elation), ryegrass, Italian (Italian ryegrass, Lolium multiflorum), foxtail, green (green foxtail, Setaria viridis), and pigweed (Amaranthus retroflexus) were planted into a blend of loam soil and sand and treated preemergence with a directed soil spray using test chemicals formulated in a non-phytotoxic solvent mixture which included a surfactant. At the same time, plants selected from these weed species and also wheat (Triticum aestivum), corn (Zea mays), blackgrass (Alopecurus myosuroides), and galium (catchweed bedstraw, Galium aparine) were planted in pots containing the same blend of loam soil and sand and treated with postemergence applications of test chemicals formulated in the same manner Plants ranged in height from 2 to 10 cm and were in the one- to two-leaf stage for the postemergence treatment. Treated plants and untreated controls were maintained in a greenhouse for approximately 10 d, after which time all treated plants were compared to untreated controls and visually evaluated for injury. Plant response ratings, summarized in Table A, are based on a 0 to 100 scale where 0 is no effect and 100 is complete control. A dash (—) response means no test result.

Structure (SMILES)	Plant response rating, Ryegrass, Italian
Cc1c2ccccc2c(-c2c(O)c(Cl)nn(C)c2=O)c2ccccc12 [Compound 5]	0

same assay, conditions: 125 g ai/ha, 0 to 100 scale

Structure (SMILES)	Plant response rating, Ryegrass, Italian
Cc1c2ccccc2c(-c2c(O)c(Cl)nn(C)c2=O)c2ccccc12 [Compound 5]	0

test system: kochia (Kochia scoparia); test: Test A preemergence, kochia; assay type: in vivo; conditions: 31 g ai/ha, 0 to 100 scale
Excerpt: as §1

Structure (SMILES)	Plant response rating, Kochia
Cc1c2ccccc2c(-c2c(O)c(Cl)nn(C)c2=O)c2ccccc12 [Compound 5]	0

same assay, conditions: 125 g ai/ha, 0 to 100 scale

Structure (SMILES)	Plant response rating, Kochia
Cc1c2ccccc2c(-c2c(O)c(Cl)nn(C)c2=O)c2ccccc12 [Compound 5]	0

test system: barnyardgrass (Echinochloa crus-galli); test: Test B flooded paddy test, barnyardgrass; assay type: in vivo; conditions: Flood, 250 g ai/ha; scale of 0 to 100, 0 no effect, 100 complete control
Procedure: (§2) Plant species in the flooded paddy test selected from rice (Oryza sativa), sedge, umbrella (small-flower umbrella sedge, Cyperus difformis), ducksalad (Heteranthera limosa), and barnyardgrass (Echinochloa crus-galli) were grown to the 2-leaf stage for testing. At the time of treatment, test pots were flooded to 3 cm above the soil surface, treated by application of test compounds directly to the paddy water, and then maintained at that water depth for the duration of the test. Treated plants and controls were maintained in a greenhouse for 13 to 15 d, after which time all species were compared to controls and visually evaluated. Plant response ratings, summarized in Table B, are based on a scale of 0 to 100 where 0 is no effect and 100 is complete control. A dash (—) response means no test result.

Structure (SMILES)	Plant response rating, Barnyardgrass
Cc1c2ccccc2c(-c2c(O)c(Cl)nn(C)c2=O)c2ccccc12 [Compound 5]	0

test system: ragweed (common ragweed, Ambrosia elation); test: Test A postemergence, ragweed; assay type: in vivo; conditions: 31 g ai/ha, 0 to 100 scale
Excerpt: as §1

Structure (SMILES)	Plant response rating, Ragweed
Cc1c2ccccc2c(-c2c(O)c(Cl)nn(C)c2=O)c2ccccc12 [Compound 5]	10

same assay, conditions: 125 g ai/ha, 0 to 100 scale

Structure (SMILES)	Plant response rating, Ragweed
Cc1c2ccccc2c(-c2c(O)c(Cl)nn(C)c2=O)c2ccccc12 [Compound 5]	20

test system: blackgrass (Alopecurus myosuroides); test: Test A postemergence, blackgrass; assay type: in vivo; conditions: 31 g ai/ha, 0 to 100 scale
Excerpt: as §1

Structure (SMILES)	Plant response rating, Blackgrass
Cc1c2ccccc2c(-c2c(O)c(Cl)nn(C)c2=O)c2ccccc12 [Compound 5]	0

same assay, conditions: 125 g ai/ha, 0 to 100 scale

Structure (SMILES)	Plant response rating, Blackgrass
Cc1c2ccccc2c(-c2c(O)c(Cl)nn(C)c2=O)c2ccccc12 [Compound 5]	0

test system: rice (Oryza sativa); test: Test B flooded paddy test, rice; assay type: in vivo; conditions: Flood, 250 g ai/ha; scale of 0 to 100
Procedure: as §2

Structure (SMILES)	Plant response rating, Rice
Cc1c2ccccc2c(-c2c(O)c(Cl)nn(C)c2=O)c2ccccc12 [Compound 5]	0

test system: pigweed (Amaranthus retroflexus); test: Test A preemergence, pigweed; assay type: in vivo; conditions: 31 g ai/ha, 0 to 100 scale
Excerpt: as §1

Structure (SMILES)	Plant response rating, Pigweed
Cc1c2ccccc2c(-c2c(O)c(Cl)nn(C)c2=O)c2ccccc12 [Compound 5]	0

same assay, conditions: 125 g ai/ha, 0 to 100 scale

Structure (SMILES)	Plant response rating, Pigweed
Cc1c2ccccc2c(-c2c(O)c(Cl)nn(C)c2=O)c2ccccc12 [Compound 5]	60

test system: barnyardgrass (Echinochloa crus-galli); test: Test A postemergence, barnyardgrass; assay type: in vivo; conditions: 31 g ai/ha, 0 to 100 scale
Excerpt: as §1

Structure (SMILES)	Plant response rating, Barnyardgrass
Cc1c2ccccc2c(-c2c(O)c(Cl)nn(C)c2=O)c2ccccc12 [Compound 5]	0

same assay, conditions: 125 g ai/ha, 0 to 100 scale, 0 no effect, 100 complete control

Structure (SMILES)	Plant response rating, Barnyardgrass
Cc1c2ccccc2c(-c2c(O)c(Cl)nn(C)c2=O)c2ccccc12 [Compound 5]	30

test system: ragweed (common ragweed, Ambrosia elation); test: Test A preemergence, ragweed; assay type: in vivo; conditions: 31 g ai/ha, 0 to 100 scale
Excerpt: as §1

Structure (SMILES)	Plant response rating, Ragweed
Cc1c2ccccc2c(-c2c(O)c(Cl)nn(C)c2=O)c2ccccc12 [Compound 5]	0

same assay, conditions: 125 g ai/ha, 0 to 100 scale

Structure (SMILES)	Plant response rating, Ragweed
Cc1c2ccccc2c(-c2c(O)c(Cl)nn(C)c2=O)c2ccccc12 [Compound 5]	0

test system: sedge, umbrella (small-flower umbrella sedge, Cyperus difformis); test: Test B flooded paddy test, sedge, umbrella; assay type: in vivo; conditions: Flood, 250 g ai/ha; scale of 0 to 100
Procedure: as §2

Structure (SMILES)	Plant response rating, Sedge, Umbrella
Cc1c2ccccc2c(-c2c(O)c(Cl)nn(C)c2=O)c2ccccc12 [Compound 5]	95

test system: corn (Zea mays); test: Test A postemergence, corn; assay type: in vivo; conditions: 31 g ai/ha, 0 to 100 scale
Excerpt: as §1

Structure (SMILES)	Plant response rating, Corn
Cc1c2ccccc2c(-c2c(O)c(Cl)nn(C)c2=O)c2ccccc12 [Compound 5]	10

same assay, conditions: 125 g ai/ha, 0 to 100 scale

Structure (SMILES)	Plant response rating, Corn
Cc1c2ccccc2c(-c2c(O)c(Cl)nn(C)c2=O)c2ccccc12 [Compound 5]	20

test system: ducksalad (Heteranthera limosa); test: Test B flooded paddy test, ducksalad; assay type: in vivo; conditions: Flood, 250 g ai/ha; scale of 0 to 100
Procedure: as §2

Structure (SMILES)	Plant response rating, Ducksalad
Cc1c2ccccc2c(-c2c(O)c(Cl)nn(C)c2=O)c2ccccc12 [Compound 5]	90

test system: foxtail, green (green foxtail, Setaria viridis); test: Test A postemergence, foxtail, green; assay type: in vivo; conditions: 31 g ai/ha, 0 to 100 scale
Excerpt: as §1

Structure (SMILES)	Plant response rating, Foxtail, Green
Cc1c2ccccc2c(-c2c(O)c(Cl)nn(C)c2=O)c2ccccc12 [Compound 5]	0

same assay, conditions: 125 g ai/ha, 0 to 100 scale

Structure (SMILES)	Plant response rating, Foxtail, Green
Cc1c2ccccc2c(-c2c(O)c(Cl)nn(C)c2=O)c2ccccc12 [Compound 5]	30

test system: barnyardgrass (Echinochloa crus-galli); test: Test A preemergence, barnyardgrass; assay type: in vivo; conditions: 31 g ai/ha, 0 to 100 scale
Excerpt: as §1

Structure (SMILES)	Plant response rating, Barnyardgrass
Cc1c2ccccc2c(-c2c(O)c(Cl)nn(C)c2=O)c2ccccc12 [Compound 5]	0

same assay, conditions: 125 g ai/ha, 0 to 100 scale

Structure (SMILES)	Plant response rating, Barnyardgrass
Cc1c2ccccc2c(-c2c(O)c(Cl)nn(C)c2=O)c2ccccc12 [Compound 5]	0

test system: pigweed (Amaranthus retroflexus); test: Test A postemergence, pigweed; assay type: in vivo; conditions: 31 g ai/ha, 0 to 100 scale
Excerpt: as §1

Structure (SMILES)	Plant response rating, Pigweed
Cc1c2ccccc2c(-c2c(O)c(Cl)nn(C)c2=O)c2ccccc12 [Compound 5]	50

same assay, conditions: 125 g ai/ha, 0 to 100 scale

Structure (SMILES)	Plant response rating, Pigweed
Cc1c2ccccc2c(-c2c(O)c(Cl)nn(C)c2=O)c2ccccc12 [Compound 5]	90

test system: galium (catchweed bedstraw, Galium aparine); test: Test A postemergence, galium; assay type: in vivo; conditions: 31 g ai/ha, 0 to 100 scale
Excerpt: as §1

Structure (SMILES)	Plant response rating, Galium
Cc1c2ccccc2c(-c2c(O)c(Cl)nn(C)c2=O)c2ccccc12 [Compound 5]	20

same assay, conditions: 125 g ai/ha, 0 to 100 scale

Structure (SMILES)	Plant response rating, Galium
Cc1c2ccccc2c(-c2c(O)c(Cl)nn(C)c2=O)c2ccccc12 [Compound 5]	70

test system: kochia (Kochia scoparia); test: Test A postemergence, kochia; assay type: in vivo; conditions: 31 g ai/ha, 0 to 100 scale
Excerpt: as §1

Structure (SMILES)	Plant response rating, Kochia
Cc1c2ccccc2c(-c2c(O)c(Cl)nn(C)c2=O)c2ccccc12 [Compound 5]	0

same assay, conditions: 125 g ai/ha, 0 to 100 scale

Structure (SMILES)	Plant response rating, Kochia
Cc1c2ccccc2c(-c2c(O)c(Cl)nn(C)c2=O)c2ccccc12 [Compound 5]	0

test system: foxtail, green (green foxtail, Setaria viridis); test: Test A preemergence, foxtail, green; assay type: in vivo; conditions: 31 g ai/ha, 0 to 100 scale
Excerpt: as §1

Structure (SMILES)	Plant response rating, Foxtail, Green
Cc1c2ccccc2c(-c2c(O)c(Cl)nn(C)c2=O)c2ccccc12 [Compound 5]	0

same assay, conditions: 125 g ai/ha, 0 to 100 scale

Structure (SMILES)	Plant response rating, Foxtail, Green
Cc1c2ccccc2c(-c2c(O)c(Cl)nn(C)c2=O)c2ccccc12 [Compound 5]	0

test system: wheat (Triticum aestivum); test: Test A postemergence, wheat; assay type: in vivo; conditions: 31 g ai/ha, 0 to 100 scale
Excerpt: as §1

Structure (SMILES)	Plant response rating, Wheat
Cc1c2ccccc2c(-c2c(O)c(Cl)nn(C)c2=O)c2ccccc12 [Compound 5]	0

same assay, conditions: 125 g ai/ha, 0 to 100 scale

Structure (SMILES)	Plant response rating, Wheat
Cc1c2ccccc2c(-c2c(O)c(Cl)nn(C)c2=O)c2ccccc12 [Compound 5]	0

test system: ryegrass, Italian (Italian ryegrass, Lolium multiflorum); test: Test A postemergence, ryegrass, Italian; assay type: in vivo; conditions: 31 g ai/ha, 0 to 100 scale
Excerpt: as §1

Structure (SMILES)	Plant response rating, Ryegrass, Italian
Cc1c2ccccc2c(-c2c(O)c(Cl)nn(C)c2=O)c2ccccc12 [Compound 5]	0

same assay, conditions: 125 g ai/ha, 0 to 100 scale

Structure (SMILES)	Plant response rating, Ryegrass, Italian
Cc1c2ccccc2c(-c2c(O)c(Cl)nn(C)c2=O)c2ccccc12 [Compound 5]	50
